Data reported in patent US20190375842A1, “CHECK POINT INHIBITION IN ORGAN FIBROSIS” (VANDERBILT UNIVERSITY, priority 2018, published 2019).

Tested on: human lung fibroblasts/fibrocytes (HLF) co-cultured with sarcoidosis CD4+ T cells
Test: CD4+ T cell and human lung fibroblast (HLF) co-culture, collagen I production by flow cytometry
Type: cell-based
Conditions: after exposure to STATTIC
Procedure: The detection of increased collagen-1 production following co-culture of sarcoidosis PD-1+CD4+ cells supported an investigation of the effects of PD-1 pathway blockade on HLF collagen I production. Purified sarcoidosis CD4+ T cells at a final concentration of 2×10^6/mL were cultured overnight in the presence of α-PD-1, α-PD-L1 and α-PD-L2. HLFs were added the following day at a 1:10 ratio (HLF:T cell). […] Similar results were also observed for collagen I producing fibrocytes (CD45^+) that were cultured in the presence of sarcoidosis CD4+ T cells. There was a significant decline in collagen I production of 22% following PD-1 pathway blockade (p=0.0002) (FIG. 7E). Once again, these differences were only observed when HLF were cultured with sorted CD4+ T cells from sarcoidosis patients that had high baseline PD-1 expression on their CD4+ T cells (p=0.0002) (FIG. 7F) but not from patients with low PD-1 (p=0.10) (FIG. 7G).
LN2 frozen PBMC were thawed and readied for CD4+ T cell purification as aforementioned. 4-5×10^5 CD4+ T cells were plated on a 96-well plate at a final concentration of 2×10^6/mL in RPMI 1640-supplemented medium and then allowed to rest at 37° C. in 5% atmospheric CO2 for 2 hours prior to PD-1 pathway blockade or STATS inhibition using STATTIC. […]

## O=[N+]([O-])c1ccc2c(c1)S(=O)(=O)C=C2 [STATTIC]
Sarcoidosis PD-1+CD4+ T cells co-cultured with fibrocytes
  collagen 1 production by fibrocytes: significant reduction
Sarcoidosis PD-1+CD4+ T cells co-cultured with human lung fibroblasts
  collagen 1 production by fibroblasts: significant reduction
